For 15 molecules, inhibition and IC50 results are on record in patent US8399465B2, “Compounds with two fused bicyclic heteroaryl moieties as modulators of leukotriene A4 hydrolase” (Janssen Pharmaceutica NV, priority 2009, dated 2013).

SMILES strings stand for the structures. Counter-ions that a name gives are not always drawn. Like-named read-outs stand apart in the source and are kept apart here.

Experiment [1] concerns arachidonic acid-induced neutrophil influx in murine ear tissue. Put plainly: Murine arachidonic acid-induced inflammation model: neutrophil influx (myeloperoxidase) in ear. The class given is in vivo, Balb/c mice. The following applies: Mus musculus, read-out: % Inh. MPO. On the procedure:
(§1) Assay 3: Murine Arachidonic Acid-Induced Inflammation Model
(§2) LTA4H inhibitor compounds of the present invention were dissolved in 20% cyclodextran/H2O at a concentration of 3 mg/mL. The solutions were administered by oral gavage to female Balb/c mice weighing approximately 20 grams each (0.2 mL per mouse, 30 mg of LTA4H inhibitor compound per kg). Sixty minutes after being administered an LTA4 inhibitor, each mouse received topical application of 20 μL of arachidonic acid (100 mg/mL in acetone) to the left ear and 20 μL of acetone only to the right ear. After 3 h, the mice were sacrificed, blood was withdrawn in heparinized syringes, and 8 mm ear biopsies were taken. Ear biopsies were weighed to determine edema and then frozen at −80° C. until needed for determination of neutrophil influx.
Neutrophil influx was quantified by measuring the activity of myeloperoxidase (MPO), a neutrophil-specific enzyme. […] Debris was removed by centrifugation at 14000×g for 10 min. […] The microtiter plate contents were held at room temperature until the sample with the highest concentration of MPO reached an absorbance value of 0.4 at 650 nm. The reaction was stopped by addition of 50 μL 1 M H2SO4 to each sample well, and the myeloperoxidase activity in each sample was determined from the absorbance at […]. The background value from the right ear, treated only with acetone, was subtracted from that for the left ear, treated with arachidonic acid in acetone, for each animal. The percent inhibition of neutrophil influx (% Inh. MPO) by compounds of the invention was determined by comparison to animals treated identically, except that the solution administered by oral gavage was devoid of inhibitor compound. All compounds were assayed in their free base form.

Experiment [2] concerns ex vivo calcium ionophore-stimulated LTB4 production in whole blood. Put plainly: Murine arachidonic acid-induced inflammation model: ex vivo stimulated LTB4 production in blood. On the set-up: species or system Balb/c mice. The following applies: Mus musculus; 30 mg/kg oral gavage; blood diluted 1:1, A23187 stimulated ex vivo; percent inhibition of LTB4 production; read-out: % Inh. LTB4. How it is done:
as §1, §2
The microtiter plate contents were incubated for 30 min at 37° C. in a humidified incubator. The reaction was terminated by centrifugation (833×g, 10 min at 4° C.). Supernatants were analyzed for LTB4 by a commercially available enzyme-linked immunoassay (Cayman Chemical Co.) in accordance with the manufacturer's instructions. The percent inhibition of ex vivo stimulated LTB4 production (% Inh. LTB4) was determined by comparison to animals treated identically except that the solution administered by oral gavage was devoid of inhibitor compound.

Experiment [3] has as its system LTB4 production in murine blood (LTA4H). The experiment can be described thus: LTB4 production by calcium ionophore-stimulated murine blood for LTA4H inhibitor activity. The class given is cell-based, CD-1 mice. The following applies: Mus musculus; murine blood diluted 1 in 15, A23187 stimulated; single determination or average; mark after value = form tested: ′ free base, ″ hydrochloride, ^ formate; read-out: IC50. In short, it runs like this:
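LTB4 was measured by ELISA in supernatants after calcium ionophore A23187 stimulation (final 7 μg/mL, 30 min, 37° C) of CD-1 mouse blood collected on heparin. Compound was preincubated with the blood for 15 min beforehand. Values come from one determination or average several.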

Experiment [4] addresses T1, recombinant human LTA4 hydrolase (rhLTA4H) (Homo sapiens, UniProt P09960).
T1 construct: made in house; host or cells: Spodoptera frugiperda (Sf-9) cells, baculovirus (pFastBac1)
T1 sequence (P09960 1-611): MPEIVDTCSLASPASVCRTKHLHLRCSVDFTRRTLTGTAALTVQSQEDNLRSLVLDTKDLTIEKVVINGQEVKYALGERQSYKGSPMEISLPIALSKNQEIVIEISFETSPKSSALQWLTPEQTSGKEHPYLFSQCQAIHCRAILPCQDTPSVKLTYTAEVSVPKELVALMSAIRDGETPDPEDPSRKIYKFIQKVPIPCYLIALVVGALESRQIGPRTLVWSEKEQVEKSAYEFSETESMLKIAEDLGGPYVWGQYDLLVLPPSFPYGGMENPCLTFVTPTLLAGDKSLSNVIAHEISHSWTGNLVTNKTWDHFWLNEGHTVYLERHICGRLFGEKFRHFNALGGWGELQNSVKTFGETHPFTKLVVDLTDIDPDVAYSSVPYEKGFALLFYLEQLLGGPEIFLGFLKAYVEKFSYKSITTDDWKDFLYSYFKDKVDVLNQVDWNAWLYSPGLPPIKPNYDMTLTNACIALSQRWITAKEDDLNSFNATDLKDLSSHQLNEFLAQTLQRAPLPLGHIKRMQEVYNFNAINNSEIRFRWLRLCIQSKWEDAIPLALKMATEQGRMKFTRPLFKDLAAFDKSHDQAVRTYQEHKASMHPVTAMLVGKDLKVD
Put plainly: Recombinant human LTA4 hydrolase assay for LTA4 hydrolase inhibitor activity. The note with it: rhLTA4H, LTB4 by immunoassay; single determination or average of two or more; mark after value = form tested: ′ free base, ″ hydrochloride, ^ formate; read-out: IC50. The class given is biochemical. In short, it runs like this: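 LTB4 formation, measured by enzyme immunoassay, was the read-out. The enzyme, recombinant human LTA4H expressed in Sf-9 insect cells (10 ng per reaction), was exposed to compound for 10 min at room temperature before hydrolysed-ester LTA4 substrate was added for 30 min. Enzyme-free negatives were included.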

[5] abbreviates: 30 mg/kg oral gavage, 60 min before topical arachidonic acid, ear biopsy after 3 h, percent inhibition of neutrophil influx.

For the molecule `CC(=O)N1CC2CN(Cc3cc4cc(Oc5nc6ncccc6s5)ccc4o3)CC2C1` (stereo not drawn) [Example 90, 1-{5-[5-(Thiazolo[4,5-b]pyridin-2-yloxy)-benzofuran-2-ylmethyl]-hexahydro-pyrrolo[3,4-c]pyrrol-2-yl}-ethanone], the inhibition at 30 mg/kg in experiment [1] (setting [5]) came out at 50%; in experiment [2] it was 61%. The IC50 (in general, the midpoint of a concentration-inhibition curve) in experiment [3] was determined as 22 nM; in experiment [4], 35 nM.
Regarding `CC(=O)NC1CCN(Cc2coc3cc(Oc4nc5ncccc5s4)ccc23)C1` (stereo not drawn) [Example 307, N-{1-[6-(Thiazolo[4,5-b]pyridin-2-yloxy)-benzofuran-3-ylmethyl]-pyrrolidin-3-yl}-acetamide formate], the inhibition at 30 mg/kg is 78% in experiment [1] (Neutrophil) and 81% in experiment [2]. The IC50 in experiment [3] turned out to be 8 nM; in experiment [4], 5 nM.
Take `c1cnc2nc(Oc3ccc4c(CN5C[C@@H]6C[C@H]5CO6)coc4c3)sc2c1` [Example 158, (1S,4S)-2-[3-(2-Oxa-5-aza-bicyclo[2.2.1]hept-5-ylmethyl)-benzofuran-6-yloxy]-thiazolo[4,5-b]pyridine]: the inhibition at 30 mg/kg in experiment [1] (setting [5]) is 87%; in experiment [2], 95%. In addition, the IC50 came to 32 nM in experiment [3] and 6 nM in experiment [4].
As to `NC(=O)N1CCN(Cc2coc3cc(Oc4nc5ncccc5s4)ccc23)CC1` [Example 239, 4-[6-(Thiazolo[4,5-b]pyridin-2-yloxy)-benzofuran-3-ylmethyl]-piperazine-1-carboxylic acid amide], the inhibition at 30 mg/kg in experiment [1] (setting [5]) is 90%; in experiment [2] it was 71%. In addition, the figures for the IC50 in experiment [3] and in experiment [4] were 18 nM and 6 nM, respectively.
For `CC(=O)N1C[C@@H]2CC[C@H]1CN2Cc1cc2cc(Oc3nc4ncccc4s3)ccc2o1` [Example 169, meso-1-{5-[5-(Thiazolo[4,5-b]pyridin-2-yloxy)-benzofuran-2-ylmethyl]-2,5-diaza-bicyclo[2.2.2]oct-2-yl}-ethanone], the inhibition at 30 mg/kg in experiment [1] (setting [5]) was found to be 92%; in experiment [2], 85%. In addition, the figures for the 50% inhibitory concentration (IC50) in experiment [3] and in experiment [4] were 23 nM and 3 nM, respectively.
On the same counts, the results for `NC(=O)N1C[C@H]2C[C@@H]1CN2Cc1coc2cc(Oc3nc4ncccc4s3)ccc12` [Example 160, (1R,4R)-5-[6-(Thiazolo[4,5-b]pyridin-2-yloxy)-benzofuran-3-ylmethyl]-2,5-diaza-bicyclo[2.2.1]heptane-2-carboxylic acid amide] are 77%, 90%, 49 nM and 5 nM.
Consider `O=C(c1coc2cc(Oc3nc4ncccc4s3)ccc12)N1CCC(N2CCCC2=O)CC1` [Example 370, 1-{1-[6-(Thiazolo[4,5-b]pyridin-2-yloxy)-benzofuran-3-carbonyl]-piperidin-4-yl}-pyrrolidin-2-one], for which the inhibition at 30 mg/kg amounted to 69% in experiment [1] (Neutrophil) and 78% in experiment [2]. Further, the IC50 in experiment [3] worked out at 30 nM; in experiment [4], 9 nM.
Take `CC(=O)N[C@H]1C[C@@H]2C[C@H]1CN2Cc1coc2cc(Oc3nc4ncccc4s3)ccc12` [Example 187, (1S,4S,5S)—N-{2-[6-(Thiazolo[4,5-b]pyridin-2-yloxy)-benzofuran-3-ylmethyl]-2-aza-bicyclo[2.2.1]hept-5-yl}-acetamide]: the values for the inhibition at 30 mg/kg in experiment [1] (setting [5]) and in experiment [2] were 88% and 83%, respectively. Further, the values for the IC50 in experiment [3] and in experiment [4] were 21 nM and 1 nM, respectively.
With `CC(=O)N[C@H]1C[C@H]2CC[C@@H](C1)N2Cc1cc2ccc(Oc3nc4ncccc4s3)cc2o1` [Example 118, meso-endo-N-{8-[6-(Thiazolo[4,5-b]pyridin-2-yloxy)-benzofuran-2-ylmethyl]-8-aza-bicyclo[3.2.1]oct-3-yl}-acetamide], the inhibition at 30 mg/kg in experiment [1] (setting [5]) is 97%; in experiment [2] it was 89%. For the same molecule, the IC50 in experiment [3] was determined as 50 nM; in experiment [4], 23 nM.
As for `CC(=O)N1C[C@@H]2C[C@H]1CN2Cc1cc2ccc(Oc3nc4ncccc4s3)cc2o1` [Example 168, (1S,4S)-1-{5-[6-(Thiazolo[4,5-b]pyridin-2-yloxy)-benzofuran-2-ylmethyl]-2,5-diaza-bicyclo[2.2.1]hept-2-yl}-ethanone], the inhibition at 30 mg/kg in experiment [1] (setting [5]) was found to be 74%; in experiment [2], 70%. The figures for the IC50 in experiment [3] and in experiment [4] were 210 nM and 36 nM, respectively.
In the case of `COC[C@@H]1CCCN1Cc1coc2cc(Oc3nc4ncccc4s3)ccc12` [Example 186, (2S)-2-[3-(2-Methoxymethyl-pyrrolidin-1-ylmethyl)-benzofuran-6-yloxy]-thiazolo[4,5-b]pyridine], the inhibition at 30 mg/kg in experiment [1] (setting [5]) amounted to 79%; in experiment [2] it was 86%. Besides, the IC50 in experiment [3] worked out at 6 nM; in experiment [4] it was 1 nM.
As to `c1cnc2nc(Oc3ccc4c(CN5CCOCC5)coc4c3)sc2c1` [Example 156, 2-(3-Morpholin-4-ylmethyl-benzofuran-6-yloxy)-thiazolo[4,5-b]pyridine], the inhibition at 30 mg/kg came to 86% in experiment [1] (setting [5]) and 91% in experiment [2]. For the same molecule, the values for the IC50 in experiment [3] and in experiment [4] were 21 nM and 17 nM, respectively.
For `CC(=O)N1C[C@H]2CC[C@@H](C1)N2Cc1coc2cc(Oc3nc4ncccc4s3)ccc12` [Example 153, 1-{8-[6-(Thiazolo[4,5-b]pyridin-2-yloxy)-benzofuran-3-ylmethyl]-3,8-diaza-bicyclo[3.2.1]oct-3-yl}-ethanone], the inhibition at 30 mg/kg in experiment [1] (setting [5]) stood at 82%; in experiment [2] it was 84%. The 50% inhibitory concentration (IC50) in experiment [3] came out at 25 nM; in experiment [4], 2 nM.
On to `CC(=O)N[C@H]1C[C@@H]2C[C@H]1CN2Cc1cc2cc(Oc3nc4ncccc4s3)ccc2o1` [Example 188, (1S,4S,5S)—N-{2-[5-(Thiazolo[4,5-b]pyridin-2-yloxy)-benzofuran-2-ylmethyl]-2-aza-bicyclo[2.2.1]hept-5-yl}-acetamide], for which the figures for the inhibition at 30 mg/kg in experiment [1] (setting [5]) and in experiment [2] were 78% and 73%, respectively. Also, the results for the IC50 in experiment [3] and in experiment [4] were 63 nM and 26 nM, respectively.
For the molecule `NC(=O)N1C[C@@H]2CC[C@H]1CN2Cc1coc2cc(Oc3nc4ncccc4s3)ccc12` [Example 241, (1S,4S)-5-[6-(Thiazolo[4,5-b]pyridin-2-yloxy)-benzofuran-3-ylmethyl]-2,5-diaza-bicyclo[2.2.2]octane-2-carboxylic acid amide formate], the inhibition at 30 mg/kg amounted to 85% in experiment [1] (Neutrophil) and 77% in experiment [2]. For the same molecule, the IC50 in experiment [3] stood at 69 nM; in experiment [4], 4 nM.
